The source of these data is patent publication US20110183980A1, “O-BENZYL NICOTINAMIDE ANALOGS AS MGLUR5 POSITIVE ALLOSTERIC MODULATORS” (priority 2009, published 2011).

Molecules are shown by their SMILES. Where only a bound is given, the exact number is not on record here.

One experiment deals with T1, rat mGluR5 (Rattus norvegicus, UniProt P31424).
T1 construct: expressed in transfected cells; host or cells: human embryonic kidney (HEK) cells
T1 sequence (P31424 21-1203): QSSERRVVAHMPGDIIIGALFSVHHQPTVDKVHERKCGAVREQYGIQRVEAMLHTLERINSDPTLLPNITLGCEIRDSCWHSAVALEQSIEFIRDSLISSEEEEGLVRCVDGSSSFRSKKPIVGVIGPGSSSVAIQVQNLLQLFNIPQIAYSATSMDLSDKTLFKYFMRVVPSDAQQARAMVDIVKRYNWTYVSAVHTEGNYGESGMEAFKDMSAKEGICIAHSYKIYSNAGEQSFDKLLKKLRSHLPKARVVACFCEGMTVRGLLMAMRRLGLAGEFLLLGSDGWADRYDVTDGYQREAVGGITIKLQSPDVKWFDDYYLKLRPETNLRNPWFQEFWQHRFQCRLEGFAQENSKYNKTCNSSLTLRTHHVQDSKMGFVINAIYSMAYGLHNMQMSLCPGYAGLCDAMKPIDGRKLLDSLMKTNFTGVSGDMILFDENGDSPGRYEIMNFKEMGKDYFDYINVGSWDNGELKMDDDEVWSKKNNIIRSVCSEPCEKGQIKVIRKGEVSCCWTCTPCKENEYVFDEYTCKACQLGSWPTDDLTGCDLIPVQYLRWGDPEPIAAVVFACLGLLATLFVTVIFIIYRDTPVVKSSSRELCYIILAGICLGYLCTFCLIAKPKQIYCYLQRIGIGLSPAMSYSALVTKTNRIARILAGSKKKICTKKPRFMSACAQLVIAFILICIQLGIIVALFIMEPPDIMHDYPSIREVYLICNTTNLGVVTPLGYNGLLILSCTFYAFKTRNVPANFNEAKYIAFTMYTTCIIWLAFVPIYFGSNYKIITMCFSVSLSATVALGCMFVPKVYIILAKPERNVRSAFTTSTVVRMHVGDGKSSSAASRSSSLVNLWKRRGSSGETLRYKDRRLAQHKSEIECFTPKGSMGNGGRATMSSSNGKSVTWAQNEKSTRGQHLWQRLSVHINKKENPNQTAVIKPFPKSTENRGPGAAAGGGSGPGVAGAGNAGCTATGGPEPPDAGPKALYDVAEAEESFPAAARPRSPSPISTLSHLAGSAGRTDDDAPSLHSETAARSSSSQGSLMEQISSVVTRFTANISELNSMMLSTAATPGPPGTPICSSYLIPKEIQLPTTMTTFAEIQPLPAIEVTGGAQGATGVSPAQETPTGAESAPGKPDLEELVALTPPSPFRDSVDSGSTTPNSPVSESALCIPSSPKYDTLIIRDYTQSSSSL
As to the kind of experiment: Potentiation of glutamate response, Ca2+ fluorescence (FDSS) in HEK cells transfected with rat mGluR5. In kind it is cell-based. The conditions noted are these: Table 1; potentiation of mGluR5 response to glutamate; read-out: EC50. The protocol: Human embryonic kidney (HEK) cells transfected with rat mGluR5 were plated in clear bottom assay plates for assay in a Functional Drug Screening System (FDSS). The cells were loaded with a Ca^2+-sensitive fluorescent dye (e.g., Fluo-4), and the plates were washed and placed in the FDSS instrument. After establishment of a fluorescence baseline for twelve seconds, the compounds of the present invention were added to the cells, and the response in cells was measured. Five minutes later, an mGluR5 agonist (e.g., glutamate, 3,5-dihydroxyphenylglycine, or quisqualate) was added to the cells, and the response of the cells was measured. Potentiation of the agonist response of mGluR5 by the compounds in the present invention was observed as an increase in response to non-maximal concentrations of agonist (here, glutamate) in the presence of compound compared to the response to agonist in the absence of compound.
The above described assay operated in two modes. In the first mode, a range of concentrations of the present compounds were added to cells, followed by a single fixed concentration of agonist. If a compound acted as a potentiator, an EC50 value for potentiation and a maximum extent of potentiation by the compound at this concentration of agonist was determined by non-linear curve fitting. In the second mode, several fixed concentrations of the present compounds were added to various wells on a plate, followed by a range of concentrations of agonist for each concentration of present compound; the EC50 values for the agonist at each concentration of compound were determined by non-linear curve fitting. A decrease in the EC50 value of the agonist with increasing concentrations of the present compounds (a leftward shift of the agonist concentration-response curve) is an indication of the degree of mGluR5 potentiation at a given concentration of the present compound. An increase in the EC50 value of the agonist with increasing concentrations of the present compounds (a rightward shift of the agonist concentration-response curve) is an indication of the degree of mGluR5 antagonism at a given concentration of the present compound. The second mode also indicates whether the present compounds also affect the maximum response to mGluR5 to agonists.
Regarding `O=C(Nc1ccccn1)c1ccc(OCc2ccccc2)nc1` [Example 1.2a.4], the EC50 (in general, the concentration needed to bring the measured effect to its halfway point) came to 410 nM. Regarding `O=C(Nc1ccc(F)cc1F)c1ccc(OCc2ccccc2)nc1` [Example 1.2a.5], the EC50 was 140 nM. Still for that read-out and setting: the value for `CC(C)(C)NC(=O)c1ccc(OCc2ccccc2)nc1` [Example 1.2a.6] was 230 nM; that for `O=C(NCC1CC1)c1ccc(OCc2ccccc2)nc1` [Example 1.2a.7] was 450 nM. Still for that read-out and setting: the same measure for `CC(C)(C)CCNC(=O)c1ccc(OCc2ccccc2)nc1` [Example 1.2a.8]: 92 nM; for `O=C(NC1CCC1)c1ccc(OCc2ccccc2)nc1` [Example 1.2a.9]: 340 nM.

As for `O=C(c1ccc(OCc2ccccc2)nc1)N1CCC1` [Example 1.2a.10], the concentration giving a half-maximal response (EC50) turned out to be 3700 nM. On the same count and under the same terms, the value for `O=C(Nc1ccc(F)cn1)c1ccc(OCc2ccccc2)nc1` [Example 1.2a.11] was 280 nM; that for `O=C(NCc1ccccn1)c1ccc(OCc2ccccc2)nc1` [Example 1.2a.12] was 3400 nM. Still for that read-out and setting: the same measure for `O=C(Nc1ccncn1)c1ccc(OCc2ccccc2)nc1` [Example 1.2a.13]: 1100 nM; for `O=C(Nc1ccccc1)c1ccc(OCc2ccccc2)nc1` [Example 1.2a.14]: 380 nM.

For the compound `O=C(Nc1ccccc1F)c1ccc(OCc2ccccc2)nc1` [Example 1.2a.15], the 50% effective concentration (EC50) came out at 310 nM. Still for that read-out and setting: the same measure for `O=C(Nc1cccc(F)c1)c1ccc(OCc2ccccc2)nc1` [Example 1.2a.16]: 530 nM. Still for that read-out and setting: the same measure for `O=C(Nc1ccc(F)cc1)c1ccc(OCc2ccccc2)nc1` [Example 1.2a.17]: 340 nM.

`O=C(Nc1nccs1)c1ccc(OCc2ccccc2)nc1` [Example 1.2a.18]: the 50% effective concentration (EC50) is 520 nM. As to `C[C@@H](NC(=O)c1ccc(OCc2ccccc2)nc1)C1CCCCC1` [Example 1.2a.19], the EC50 is 40 nM.

For the compound `Cc1csc(NC(=O)c2ccc(OCc3ccccc3)nc2)n1` [Example 1.2a.20], the EC50 was 1600 nM.

For `O=C(NCC1CCOCC1)c1ccc(OCc2ccccc2)nc1` [Example 1.2a.21], the EC50 came out at 3900 nM. Still for that read-out and setting: the value for `C[C@@H](NC(=O)c1ccc(OCc2ccccc2)nc1)C1CC1` [Example 1.2a.22] was 170 nM; that for `O=C(NC1CCOCC1)c1ccc(OCc2ccccc2)nc1` [Example 1.2a.23] was 3900 nM; that for `O=C(NC1CCCCC1)c1ccc(OCc2ccccc2)nc1` [Example 1.2a.24] was 140 nM. On the same count and under the same terms, the value for `Cc1nc(OCc2ccccc2)ccc1C(=O)NCC1CC1` [Example 1.2b.2] was 1600 nM. Still for that read-out and setting: the value for `Cc1nc(OCc2ccccc2)ccc1C(=O)NCCC(C)(C)C` [Example 1.2b.3] was 400 nM; that for `CC(C)(C)CCNC(=O)c1ccc(OCc2cccc(F)c2)nc1` [Example 1.2c.3] was 85 nM. For `CC(C)NC(=O)c1ccc(OCc2cccc(F)c2)nc1` [Example 1.2c.4], the EC50 was 1000 nM. Same read-out and setting: the value for `CC(C)(C)NC(=O)c1ccc(OCc2cccc(F)c2)nc1` [Example 1.2c.5] was 400 nM; that for `O=C(NC1CCCCC1)c1ccc(OCc2cccc(F)c2)nc1` [Example 1.2c.6] was 40 nM. On the same count and under the same terms, the value for `O=C(c1ccc(OCc2cccc(F)c2)nc1)N1CCOCC1` [Example 1.2c.7] was 1700 nM; that for `O=C(NCc1ccccn1)c1ccc(OCc2cccc(F)c2)nc1` [Example 1.2c.8] was 2700 nM. For the compound `O=C(Nc1ccccc1F)c1ccc(OCc2cccc(F)c2)nc1` [Example 1.2c.9], the EC50 came to 210 nM.

In the case of `O=C(Nc1cccc(F)c1)c1ccc(OCc2cccc(F)c2)nc1` [Example 1.2c.10], the EC50 turned out to be 460 nM. Still for that read-out and setting: the same measure for `O=C(Nc1ccc(F)cc1)c1ccc(OCc2cccc(F)c2)nc1` [Example 1.2c.11]: 260 nM. Take `O=C(Nc1ccc(Cl)cc1F)c1ccc(OCc2cccc(F)c2)nc1` [Example 1.2c.12]: the concentration giving a half-maximal response (EC50) worked out at 570 nM. `O=C(Nc1ccc(Cl)cn1)c1ccc(OCc2cccc(F)c2)nc1` [Example 1.2c.13]: the 50% effective concentration (EC50) amounted to 346 nM. Still for that read-out and setting: the same measure for `O=C(NCC1CC1)c1ccc(OCc2cccc(F)c2)nc1` [Example 1.2c.14]: 920 nM; for `C[C@@H](NC(=O)c1ccc(OCc2cccc(F)c2)nc1)C1CC1` [Example 1.2c.15]: 94 nM; for `O=C(NCC1CCCCC1)c1ccc(OCc2cccc(F)c2)nc1` [Example 1.2c.16]: 230 nM. The same measure, in the same setting: the same measure for `O=C(NCC1CCOCC1)c1ccc(OCc2cccc(F)c2)nc1` [Example 1.2c.17]: 1100 nM. Regarding `C[C@@H](NC(=O)c1ccc(OCc2cccc(F)c2)nc1)C1CCCCC1` [Example 1.2c.18], the concentration giving a half-maximal response (EC50) is 190 nM. Same read-out and setting: the value for `O=C(NC1CCC1)c1ccc(OCc2cccc(F)c2)nc1` [Example 1.2c.19] was 120 nM; that for `O=C(NC1CCOCC1)c1ccc(OCc2cccc(F)c2)nc1` [Example 1.2c.20] was 1600 nM; that for `O=C(Nc1ccc(F)cc1F)c1ccc(OCc2cccc(F)c2)nc1` [Example 1.2c.21] was 76 nM. Consider `O=C(Nc1ccccn1)c1ccc(OCc2ccc(F)cc2)nc1` [Example 1.2d.1], for which the EC50 came out at 1300 nM. Same read-out and setting: the value for `O=C(Nc1ccc(F)cc1F)c1ccc(OCc2ccc(F)cc2)nc1` [Example 1.2d.2] was 210 nM; that for `O=C(Nc1ccc(F)cn1)c1ccc(OCc2ccc(F)cc2)nc1` [Example 1.2d.3] was 510 nM; that for `CC(C)(C)CCNC(=O)c1ccc(OCc2ccc(F)cc2)nc1` [Example 1.2d.4] was 690 nM. Still for that read-out and setting: the same measure for `CC(C)(C)CCNC(=O)c1ccc(OCc2cc(F)cc(F)c2)nc1` [Example 1.2e.1]: 1100 nM; for `O=C(Nc1ccccn1)c1ccc(OCc2ccccc2F)nc1` [Example 1.2f.1]: 300 nM; for `O=C(NC1CCC1)c1ccc(OCc2ccccc2F)nc1` [Example 1.2f.2]: 270 nM. On the same count and under the same terms, the same measure for `O=C(NC1CCCCC1)c1ccc(OCc2ccccc2F)nc1` [Example 1.2f.3]: 110 nM. As for `Cc1cccc(COc2ccc(C(=O)Nc3ccccn3)cn2)c1` [Example 1.2g.1], the 50% effective concentration (EC50) was 240 nM.

Consider `Cc1cccc(COc2ccc(C(=O)NC3CCC3)cn2)c1` [Example 1.2g.2], for which the 50% effective concentration (EC50) worked out at 120 nM. The same measure, in the same setting: the same measure for `Cc1cccc(COc2ccc(C(=O)NC3CCCCC3)cn2)c1` [Example 1.2g.3]: 100 nM; for `O=C(Nc1ccccn1)c1ccc(OCc2cccnc2)nc1` [Example 1.2h.1]: 2900 nM; for `O=C(Nc1ccccn1)c1ccc(OCc2ccncc2)nc1` [Example 1.2i.2]: ≥ 10000 nM. Still for that read-out and setting: the same measure for `O=C(NC1CCCCC1)c1ccc(OCc2ccncc2)nc1` [Example 1.2i.3]: 1200 nM; for `O=C(Nc1ccc(F)cc1F)c1ccc(OCc2ccncc2)nc1` [Example 1.2i.4]: 810 nM.

Turning to `C[C@@H](NC(=O)c1ccc(OCc2ccncc2)nc1)C1CC1` [Example 1.2i.5], the EC50 was 4800 nM. Still for that read-out and setting: the same measure for `CCCCOc1ccc(C(=O)NC2CCCCC2)cn1` [Example 1.2j.2]: 2400 nM; for `CCCCOc1ccc(C(=O)NC(C)(C)C)cn1` [Example 1.2j.3]: ≥ 10000 nM. On the same count and under the same terms, the value for `CCCCOc1ccc(C(=O)Nc2ccc(F)cn2)cn1` [Example 1.2j.4] was 1500 nM; that for `CCCCOc1ccc(C(=O)Nc2ccccc2)cn1` [Example 1.2j.5] was 650 nM; that for `CCCCOc1ccc(C(=O)N[C@H](C)C2CCCCC2)cn1` [Example 1.2j.6] was 1500 nM. On to `CCCCOc1ccc(C(=O)NC2CCCCCC2)cn1` [Example 1.2j.7], for which the half-maximal effective concentration (EC50) came to 2200 nM. On the same count and under the same terms, the same measure for `Cc1nc(OCc2cccc(F)c2)ccc1C(=O)N[C@H](C)C1CCCCC1` [Example 1.2m.2]: 870 nM. Still for that read-out and setting: the value for `Cc1nc(OCc2cccc(F)c2)ccc1C(=O)NC1CCCCC1` [Example 1.2m.3] was 610 nM; that for `Cc1nc(OCc2ccncc2)ccc1C(=O)NCCC(C)(C)C` [Example 1.2n.1] was 3400 nM.

The experiment is the same for the next values; noted with them: Table 2; potentiation of mGluR5 response to glutamate; read-out: EC50.
For `CC(C)[C@@H](C)NC(=O)c1ccc(OCc2cccc(F)c2)nc1`, the EC50 was 21 nM. Regarding `C[C@@H](NC(=O)c1cnc(OCc2ccncc2)cc1C(F)(F)F)C(C)(C)C`, the concentration giving a half-maximal response (EC50) came out at 3900 nM.

The same experiment, now with this note: mGluR5 expressing cell line.
On to `C[C@@H](NC(=O)c1ccc(OCc2ccccc2)nc1)C1CCCCC1` [Example 1.2a.2, (R)-6-(Benzyloxy)-N-(1-cyclohexylethyl)nicotinamide], for which the Glu max turned out to be 91%.

The same experiment, now with this note: mGluR5 expressing cell line, potentiation; read-out: EC50.
As to `C[C@@H](NC(=O)c1ccc(OCc2ccccc2)nc1)C1CCCCC1` [Example 1.2a.2, (R)-6-(Benzyloxy)-N-(1-cyclohexylethyl)nicotinamide], the concentration for a half-maximal effect (EC50) came out at 40 nM.

Staying with this experiment, now noted: read-out: EC50 as an mGluR5 potentiator.
As for `C[C@H](NC(=O)c1ccc(OCc2ccccc2)nc1)C1CCCCC1` [(S)-6-(benzyloxy)-N-(1-cyclohexylethyl)nicotinamide], the EC50 was > 10000 nM.
